Experimental data published in PMC7589200, “Identification of Putative Non-Substrate-Based XT-I Inhibitors by Natural Product Library Screening” (Biomolecules, 2020).
“And” between values parts separate entries of the source, which are not always exact repeats. Identical values can stand only once.

Legend:
[1] = system: TGFB1 mRNA expression; experiment: TGFB1 mRNA expression in NHDFs by qRT-PCR; type: cell-based, human; details: 2 μM in the presence of TGF-β1 (5 μg/L), 48 h
Procedure: (§1) A former established cell culture model was utilized to investigate the effect of putative XT-I inhibitors on NHDFs. The inhibition studies were carried out with final inhibitor concentrations of 0.5, 1.0, 2.0 or 4.0 μM diluted in fully supplemented DMEM. In brief, unless otherwise stated, NHDFs were cultivated with a low density of 50 cells per mm^2 on a hard tissue culture substrate (100 × 20 mm dish) in fully supplemented DMEM with or without additional TGF-β1 (5 μg/L) for 24 h, promoting their transdifferentiation into proto-myofibroblasts. Thereafter, cells were treated with celastrol or amphotericin B in the presence or absence of TGF-β1 (5 μg/L) for an additional 48 h. Negative controls treated with solvent only were included for every sampling time. The final DMSO content of 0.04% (v/v) was kept constant in all inhibition experiments.
(§2) The RNA extraction from cell lysates and cDNA synthesis for mRNA and miRNA expression analysis were performed as described previously.
(§3) Quantitative real-time polymerase chain reaction (qRT-PCR) analysis using a LightCycler 480 Instrument II system (Roche, Basel, Swiss) was performed as previously described. […] The geometric mean of the expression levels of the housekeeping genes SDHA, RPL13A and B2M were calculated for expression normalization. The relative target gene mRNA expressions were determined by the ΔΔCT method considering the PCR efficiency. […]

[2] = system: SMAD7 mRNA expression; experiment: SMAD7 mRNA expression in NHDFs by qRT-PCR; type: cell-based, human; details: 2 μM in the presence of TGF-β1 (5 μg/L), 48 h
Procedure: as §1, with “experiments. […]” for “experiments.”
as §3

[3] = system: COL1A1 mRNA expression; experiment: COL1A1 mRNA expression in NHDFs by qRT-PCR; type: cell-based, human; details: 48 h
Procedure: as §1, §2, §3

[4] = system: fibroblasts; details: in vitro, osteoblasts and fibroblasts; cited from earlier work

C[C@@H]1[C@H](O)[C@@H](C)/C=C/C=C/C=C/C=C/C=C/C=C/C=C/[C@H](O[C@@H]2O[C@H](C)[C@@H](O)[C@H](N)[C@@H]2O)C[C@@H]2O[C@](O)(C[C@@H](O)C[C@@H](O)[C@H](O)CC[C@@H](O)C[C@@H](O)CC(=O)O[C@H]1C)C[C@H](O)[C@H]2C(=O)O [Compound 17, Amphotericin B]
TGFB1 mRNA expression relative to TGF-β1 only [1]: 0.8 ± 0.04 fold | SMAD7 mRNA expression relative to TGF-β1 only [2]: 1.3 ± 0.1 fold | TGF-β1-mediated COL1A1 mRNA expression relative to TGF-β1 only ([3]; 2.0 μM with TGF-β1 (5 μg/L)): 0.8 ± 0.06 fold | COL1A1 mRNA expression compared to controls treated with DMSO ([3]; amphotericin B treatment, not statistically significant (p = 0.2)): 0.7 ± 0.1 fold | concentration causing sublethal cytotoxicity [4]: 5000 ng/mL and 10000 ng/mL | concentration lethal to fibroblasts [4]: 100000 ng/mL
